For assay [1], the target named is T1, Phosphodiesterase 4 (Homo sapiens, UniProt P27815+Q08499+Q07343+Q08493). Put plainly: Displacement of [3H]rolipram binding to guinea pig brain membrane. In kind it is tissue-based, Cavia porcellus. The note with it: target entry is the homologue from another species. Background: Loss of bound radioactivity is the signal in a displacement assay; it reports binding, not function.

Assay [2] deals with T1, Phosphodiesterase 4. The experiment in a line: Inhibition of guinea pig macrophage Phosphodiesterase 4. The format is protein assay, Cavia porcellus. The note with it: target entry is the homologue from another species.

By Ki is commonly meant the dissociation constant of the complex between target and ligand, obtained from inhibition or displacement. Read a high Ki as a looser hold on the target. In general, IC50 refers to the concentration at which inhibition is half-maximal. On Phosphodiesterase 4 [1], `COc1ccc(C2(Cc3ccncc3)C(=O)N(Cc3ccccc3)c3ccccc32)cc1OC1CCCC1` (centres undefined) showed a Ki above 3700 nM. For the same compound, the 50% inhibitory concentration (IC50) at Phosphodiesterase 4 [2] was determined as 2000 nM.

In turn, `COc1ccc(C2(Cc3ccncc3)C(=O)Nc3ccccc32)cc1OC1CCCC1` (centres undefined) displayed a Ki at Phosphodiesterase 4 [1] of 200 nM. Also, at Phosphodiesterase 4 [2], the IC50 stood at 600 nM.

The compound `COc1ccc(C2(Cc3ccncc3)C(=O)N(Cc3ccncc3)c3ccccc32)cc1OC1CCCC1` (centres undefined) showed a Ki at Phosphodiesterase 4 [1] above 3700 nM. The same compound had an IC50 at Phosphodiesterase 4 [2] of 1000 nM.

The compound `COc1ccc(C2(Cc3ccncc3)C(=O)N(S(=O)(=O)c3ccc(C)cc3)c3ccccc32)cc1OC1CCCC1` (centres undefined) registered an inhibition constant Ki at Phosphodiesterase 4 [1] above 3700 nM. The compound further displayed a half-inhibitory concentration (IC50) on Phosphodiesterase 4 [2] of 2400 nM.

`COc1ccc(C2(Cc3cccnc3)C(=O)Nc3ccccc32)cc1OC1CCCC1` (centres undefined) came in with a Ki on Phosphodiesterase 4 [1] of 2600 nM. The same compound came in with an IC50 at Phosphodiesterase 4 [2] of 400 nM.

Turning to `COc1ccc(C2(Cc3ccncc3)C(=O)N(C(=O)OC(C)(C)C)c3ccccc32)cc1OC1CCCC1` (centres undefined), the inhibition constant Ki on Phosphodiesterase 4 [1] turned out to be 2800 nM. The compound further gave an IC50 at Phosphodiesterase 4 [2] of 700 nM.

At Phosphodiesterase 4 [1], `COc1ccc(C2(Cc3cc[n+]([O-])cc3)C(=O)Nc3ccccc32)cc1OC1CCCC1` (centres undefined) had a Ki above 3700 nM. The IC50 on Phosphodiesterase 4 [2] is 1200 nM.

On to `COc1ccc(C2(Cc3ccccn3)C(=O)Nc3ccccc32)cc1OC1CCCC1` (centres undefined), for which, on Phosphodiesterase 4 [1], the inhibitory constant (Ki) was above 3700 nM. At Phosphodiesterase 4 [2], this compound gave a half-maximal inhibitory concentration (IC50) of 700 nM.

`COc1ccc(C2C(=O)Nc3ccccc32)cc1OC1CCCC1` (centres undefined) registered an inhibition constant (Ki) at Phosphodiesterase 4 [1] above 3700 nM. The compound further came in with a half-inhibitory concentration (IC50) on Phosphodiesterase 4 [2] of 6000 nM.

Take `COc1ccc(C2(Cc3ccncc3)C(=O)N(C(=O)N(C)C)c3ccccc32)cc1OC1CCCC1` (centres undefined): the Ki at Phosphodiesterase 4 [1] stood at 2400 nM. At Phosphodiesterase 4 [2], the concentration for half-maximal inhibition (IC50) is 1700 nM.

With `COc1ccc(C2(Cc3ccccc3)C(=O)Nc3ccccc32)cc1OC1CCCC1` (centres undefined), the inhibition constant (Ki) on Phosphodiesterase 4 [1] is above 3700 nM. The IC50 at Phosphodiesterase 4 [2] came to 1000 nM.

As for `COc1ccc([C@H](Cc2ccncc2)c2ccccc2)cc1OC1CCCC1` [CDP840], the Ki on Phosphodiesterase 4 [1] was determined as 60 nM. The compound also registered an IC50 on Phosphodiesterase 4 [2] of 4.5 nM.
